Source: PMC4045134, “Discovery of Triterpenoids as Reversible Inhibitors of α/β-hydrolase Domain Containing 12 (ABHD12)” (PLoS ONE, 2014)
Entries after “also recorded” stand apart in the source; their conditions may differ. Read-outs that look alike come from different tables or passages of the source.

Target: T1, hABHD12 (Homo sapiens, UniProt Q8N2K0)
T1 construct: expressed in transfected cells; host or cells: HEK293 (transient)
T1 sequence (Q8N2K0 1-398): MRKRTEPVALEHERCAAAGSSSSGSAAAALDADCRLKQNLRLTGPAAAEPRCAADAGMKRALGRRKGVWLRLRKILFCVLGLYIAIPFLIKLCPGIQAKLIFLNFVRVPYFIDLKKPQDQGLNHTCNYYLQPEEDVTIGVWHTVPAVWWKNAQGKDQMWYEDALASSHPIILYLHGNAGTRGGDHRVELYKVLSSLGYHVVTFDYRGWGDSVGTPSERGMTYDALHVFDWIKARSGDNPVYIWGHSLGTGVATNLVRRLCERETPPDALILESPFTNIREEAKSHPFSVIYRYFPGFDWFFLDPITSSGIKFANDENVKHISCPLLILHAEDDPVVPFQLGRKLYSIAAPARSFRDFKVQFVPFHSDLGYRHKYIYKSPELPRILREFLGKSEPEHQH
Experiment: Fluorescent glycerol assay of 1-AG hydrolysis in hABHD12-HEK293 lysates
Assay type: biochemical
Conditions: for remaining activity at 10 µM: read-out: Remaining activity at 10 µM % ± s.e.m.; for Emax: read-out: max inhibition (converted); for inhibition at 10 µM: read-out: inhibition of hABHD12 at 10 µM
Procedure: Glycerol liberated from 1-AG hydrolysis was determined with a sensitive fluorescent assay using lysates of HEK293 cells with transient overexpression of hABHD12, hABHD6 or hMAGL, essentially as previously described. […] Fluorescence (λex 530; λem 590 nm) was monitored using a Tecan Infinite M200 plate reader (Tecan Group Ltd., Männedorf, Switzerland). Inhibitory activities of selected compounds towards FAAH were determined using membranes of hFAAH overexpressing COS-7 cells, essentially as previously described. The final incubation volume (100 µL) contained 1 µg of protein and the substrate concentration was 20 µM (10 nM of ^3H-anandamide having specific activity of 60 Ci/mmol and concentration of 1 mCi/mL).

[1] = hABHD12-HEK293 lysates, 10 µM, NI = no inhibition
[2] = hABHD12-HEK293 lysates, three independent experiments, read-out: -logIC50±s.e.m. (converted)
[3] = hABHD12-HEK293 lysates, read-out: IC50

Compound | remaining activity at 10 µM [1] | other results
C=C(C)[C@@H]1CC[C@]2(COC(=O)/C=C/c3ccccc3)CC[C@]3(C)[C@H](CC[C@@H]4[C@@]5(C)CC[C@H](O)C(C)(C)[C@@H]5CC[C@]43C)[C@@H]12 [Compound 26] | > 100% | 
C=C(C)[C@@H]1CC[C@]2(C(=O)O)CC[C@]3(C)[C@H](CC[C@@H]4[C@@]5(C)Cc6nccnc6C(C)(C)[C@@H]5CC[C@]43C)[C@@H]12 [Compound 42] |  | IC50 [2]: 3.55 µM; IC50 [3]: 3.6 µM; Emax (hABHD12-HEK293 lysates): 56%
C=C(C)[C@@H]1CC[C@]2(C(=O)O)CC[C@]3(C)[C@H](CC[C@@H]4[C@@]5(C)Cc6ncccc6C(C)(C)[C@@H]5CC[C@]43C)[C@@H]12 [Compound 40, Lupa-2,20(29)-dieno[2,3-b]pyridin-28-oic acid] | 66 ± 1.1% | inhibition at 10 µM: 34%
C=C(C)[C@@H]1CC[C@]2(C)CC[C@]3(C)[C@H](CC[C@@H]4[C@@]5(C)CC[C@H](O)C(C)(C)[C@@H]5CC[C@]43C)[C@@H]12 [Compound 3, Lupeol, reference compound] | > 100% | 
C=C(C)[C@@H]1CC[C@]2(C(=O)O)CC[C@]3(C)[C@H](CC[C@@H]4[C@@]5(C)CC(O)C(O)C(C)(C)[C@@H]5CC[C@]43C)[C@@H]12 (stereo partly drawn) [Compound 32, 2β,3β-Dihydroxylup-20(29)-en-28-oic acid] |  | IC50 [2]: 3.72 µM; Emax (hABHD12-HEK293 lysates): 100%
CC1(C)CC[C@]2(C(=O)O)CC[C@]3(C)C(=CC[C@@H]4[C@@]5(C)CC[C@H](O)[C@@](C)(CO)[C@@H]5CC[C@]43C)[C@@H]2C1 [Compound 9, Hederagenin, reference compound] | 78 ± 3% | hABHD12 inhibitory activity (in words): did not inhibit hABHD12
C=C(C)[C@@H]1CC[C@]2(C(=O)O)CC[C@]3(C)[C@H](CC[C@@H]4[C@@]5(C)Cc6c[nH]nc6C(C)(C)[C@@H]5CC[C@]43C)[C@@H]12 [Compound 37] |  | IC50 [2]: 1.45 µM; Emax (hABHD12-HEK293 lysates): 100%
C=C(C)[C@@H]1CC[C@]2(C(=O)O)CC[C@]3(C)[C@H](CC[C@@H]4[C@@]5(C)Cc6cccnc6C(C)(C)[C@@H]5CC[C@]43C)[C@@H]12 [Compound 41] |  | IC50 [2]: 6.61 µM; IC50 [3]: 6.7 µM; Emax (hABHD12-HEK293 lysates): 80%
C=C(C)[C@@H]1CC[C@]2(C=O)CC[C@]3(C)[C@H](CC[C@@H]4[C@@]5(C)CC[C@H](O)C(C)(C)[C@@H]5CC[C@]43C)[C@@H]12 [Compound 16] | 71 ± 0.8% | inhibition at 10 µM: ~30%
C=C(C)[C@@H]1CC[C@]2(CO)CC[C@]3(C)[C@H](CC[C@@H]4[C@@]5(C)CC[C@H](O)C(C)(C)[C@@H]5CC[C@]43C)[C@@H]12 [Compound 2, Betulin, reference compound] | ~75% | 
COC(=O)[C@]1(C)CC[C@]2(C)CC[C@]3(C)C4=CC=C5C(=CC(=O)C(O)=C5C)[C@]4(C)CC[C@@]3(C)[C@@H]2C1 [Compound 15, Pristimerin, reference compound] |  | remaining activity at 10 µM: > 100%
C=C(C)[C@@H]1CC[C@]2(COC(=O)CCC(C)=O)CC[C@]3(C)[C@H](CC[C@@H]4[C@@]5(C)CC[C@H](OC(=O)CCC(C)=O)C(C)(C)[C@@H]5CC[C@]43C)[C@@H]12 [Compound 28] | > 100% | 
C=C(C)[C@@H]1CC[C@]2(C(N)=O)CC[C@]3(C)[C@H](CC[C@@H]4[C@@]5(C)Cc6nccnc6C(C)(C)[C@@H]5CC[C@]43C)[C@@H]12 [Compound 43] | 69 ± 0.8% | 
CC1(C)CC[C@]2(C)CC[C@]3(C)C(=CC[C@@H]4[C@@]5(C)CC[C@H](O)C(C)(C)[C@@H]5CC[C@]43C)[C@@H]2C1 [Compound 10, β-Amyrin, reference compound] | > 100% | 
C[C@H]1[C@H](C)CC[C@]2(C(=O)O)CC[C@]3(C)C(=CC[C@@H]4[C@@]5(C)C[C@@H](O)[C@H](O)[C@@](C)(CO)[C@@H]5CC[C@]43C)[C@H]12 [Compound 5, Asiatic acid, reference compound] | > 100% | hABHD12 inhibitory activity (in words): did not inhibit hABHD12; also recorded: completely devoid of activity
COC(=O)[C@]12CCC(C)(C)C[C@H]1[C@H]1C(=O)C=C3[C@@]4(C)C=C(C#N)C(=O)C(C)(C)[C@@H]4CC[C@@]3(C)[C@]1(C)CC2 [Compound 13, CDDO methyl ester, reference compound] | > 100% | 
CC1=C(O)C(=O)C=C2C1=CC=C1[C@@]2(C)CC[C@@]2(C)[C@@H]3C[C@](C)(C(=O)O)CC[C@]3(C)CC[C@]12C [Compound 14, Celastrol, reference compound] | > 100% | 
C=C(C)[C@@H]1CC[C@]2(CO)CC[C@]3(C)[C@H](CC[C@@H]4[C@@]5(C)CC[C@H](OC(C)=O)C(C)(C)[C@@H]5CC[C@]43C)[C@@H]12 [Compound 30] | > 100% | 
C=C(C)[C@@H]1CC[C@]2(C=O)CC[C@]3(C)[C@H](CC[C@@H]4[C@@]5(C)Cc6cnoc6C(C)(C)[C@@H]5CC[C@]43C)[C@@H]12 [Compound 38] | 84 ± 1.6% | hABHD12 inhibitory activity (in words): poor inhibitory activity; also recorded: complete loss of the inhibitory activity
CC(C)[C@@]12CC[C@]3(CO)CC[C@]4(C)C(=C31)C(C[C@@H]1[C@@]3(C)CC[C@H](O)C(C)(C)[C@@H]3CC[C@]14C)n1c(=O)n(-c3ccccc3)c(=O)n12 (stereo partly shown) [Compound 39] | 86 ± 0.4% | 
C[C@H]1[C@H](C)CC[C@]2(C)CC[C@]3(C)C(=CC[C@@H]4[C@@]5(C)CC[C@H](O)C(C)(C)[C@@H]5CC[C@]43C)[C@H]12 [Compound 6, α-Amyrin, reference compound] | > 100% | 
CC1(C)CC[C@]2(C(=O)O)CC[C@]3(C)C(=CC[C@@H]4[C@@]5(C)CC[C@H](O)C(C)(C)[C@@H]5CC[C@]43C)[C@@H]2C1 [Compound 7, Oleanolic acid, reference compound] | ~20% | 
C=C(C)[C@@H]1CC[C@]2(COC3CCCCO3)CC[C@]3(C)[C@H](CC[C@@H]4[C@@]5(C)CC[C@H](O)C(C)(C)[C@@H]5CC[C@]43C)[C@@H]12 (stereo partly shown) [Compound 29] | > 100% | 
C=C(C)[C@@H]1CC[C@]2(COC(=O)CCC(C)=O)CC[C@]3(C)[C@H](CC[C@@H]4[C@@]5(C)CC[C@H](O)C(C)(C)[C@@H]5CC[C@]43C)[C@@H]12 [Compound 27] | 85 ± 0.5% | 
C=C(C)[C@@H]1CC[C@]2(C(=O)NCCC)CC[C@]3(C)[C@H](CC[C@@H]4[C@@]5(C)CCC(=O)C(C)(C)[C@@H]5CC[C@]43C)[C@@H]12 [Compound 20] | 84 ± 1.5% | 
C=C(C)[C@@H]1CC[C@]2(C(=O)N3CCCC3)CC[C@]3(C)[C@H](CC[C@@H]4[C@@]5(C)CCC(=O)C(C)(C)[C@@H]5CC[C@]43C)[C@@H]12 [Compound 21] | 80 ± 0.3% | 
